A value given as a limit tells only on which side of the number the result lay.

In one series the target is human AT2R fused to Cb23 (Homo sapiens, UniProt P50052). In words: Radioligand binding assay, displacement of 125I-[Sar1, Ile8]-Angiotensin II, hAT2R Cb23. The note with it: displacement of 125I-[Sar1, Ile8]-Angiotensin II, human AT2R fused to Cb23, HEK-293 cell membrane preparations; read-out: Binding affinity on hAT2R_Cb23 IC50. In outline: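 Membranes from HEK-293 cells expressing human AT2R fused to Cb23 were incubated with 0.05 nM 125I-[Sar1, Ile8]-Angiotensin II in 100 μL buffer (50 mM Tris, 5 mM MgCl2, 1 mM EDTA, 0.1% BSA, pH 7.4) for one hour at 25° C. Ligands were tested as eight-point dose-response curves in duplicate, with C21 and Angiotensin II as references.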
Chain of human AT2R fused to Cb23 (P50052 whole entry, looked up, the tested form may be a part): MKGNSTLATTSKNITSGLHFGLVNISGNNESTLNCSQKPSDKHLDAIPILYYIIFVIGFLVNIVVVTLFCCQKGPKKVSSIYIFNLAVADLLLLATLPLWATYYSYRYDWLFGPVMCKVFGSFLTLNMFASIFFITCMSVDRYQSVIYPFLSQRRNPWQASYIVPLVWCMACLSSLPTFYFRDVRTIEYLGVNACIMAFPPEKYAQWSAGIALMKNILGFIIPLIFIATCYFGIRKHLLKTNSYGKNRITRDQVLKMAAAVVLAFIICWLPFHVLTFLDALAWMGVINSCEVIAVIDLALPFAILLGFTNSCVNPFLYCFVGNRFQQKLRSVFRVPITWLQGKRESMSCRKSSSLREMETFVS
In general terms: In a radioligand displacement assay an active substance lowers the binding of a labelled ligand.

Series [1] can be described thus: Liver microsomal stability, mouse. It is filed as in vitro ADME. The note with it: male, pH 7.4, liver microsomes. How it is done: (§1) Mouse hepatic microsomes were isolated from pooled (50), perfused livers of male Balb/c mice. Rat hepatic microsomes were isolated from pooled (15), perfused livers of male Wistar rats. Isolation was performed according to the standard protocol (Hill, J. R. in Current Protocols in Pharmacology 7.8.1-7.8.11, Wiley Interscience, 2003). The batches of microsomes were tested for quality control using Imipramine, Propranolol and Verapamil as reference compounds.
(§2) Microsomal incubations were carried out in 96-well plates in 5 aliquots of 40 μL each (one for each time point). Liver microsomal incubation medium contained PBS (100 mM, pH 7.4), MgCl2 (3.3 mM), NADPH (3 mM), glucose-6-phosphate (5.3 mM), glucose-6-phosphate dehydrogenase (0.67 units/ml) with 0.42 mg of liver microsomal protein per ml. Control incubations were performed replacing the NADPH-cofactor system with PBS. Test compound (2 μM, final solvent concentration 1.6%) was incubated with microsomes at 37° C., shaking at 100 rpm. Incubations were performed in duplicates. Five time points over 40 minutes have been analyzed. The reactions were stopped by adding 12 volumes of 90% acetonitrile-water to incubation aliquots, followed by protein sedimentation by centrifuging at 5500 rpm for 3 minutes. […]. Supernatants were analyzed using the HPLC system coupled with tandem mass spectrometer (API3000 PE Sciex). Acquisition and analysis of the data were performed using Analyst 1.5.2 software (PE Sciex). The elimination constant (kel), half-life (t½) and intrinsic clearance (Clint) were determined in plot of […] versus time, using linear regression analysis:
(§3) Mouse hepatic microsomes were isolated from pooled, perfused livers of male CD1 mice. Rat hepatic microsomes were isolated from pooled, perfused livers of male Sprague Dawley rats. Dog hepatic microsomes were isolated from pooled, perfused livers of male Beagle dogs. The batches of microsomes were tested for quality control using Testosterone, Propranolol and Caffeine as reference compounds.
(§4) A 10 mM stock solution of compound in DMSO is diluted three-fold in DMSO. This pre-diluted compound solution is then further diluted to 2 μM in a 50 mM phosphate buffer (PBS, pH 7.4) and pre-warmed at 37° C. This compound dilution is mixed F2 with microsomal/cofactor mix at 37° C. under shaking at 300 rpm. Final reaction conditions are: 100 μL incubation volume, 1 μM of test compound (in duplicate), <0.1% DMSO, 0.5 mg/mL microsomes, 0.6 U/mL Glucose-6-phosphate-dehydrogenase (G6PDH, Roche, 10127671001), 3.3 mM MgCl2 (Sigma, M2670), 3.3 mM glucose-6-phosphate (Sigma, G-7879) and 1.3 mM NADP+ (Sigma, N-0505).
(§5) After 60 min of incubation at 300 rpm and 37° C., the reaction was stopped with 3 volumes of STOP solution (acetonitrile/MeOH 2/1 with diclofenac as internal standard). For the time point zero, 3 volumes of STOP solution were added to the compound dilution before the microsome mix was added. Six time points over 60 minutes have been analyzed. The samples of all time points were centrifuged, filtered and the supernatant analyzed by LCMS/MS (systems API4000).
(§6) The instrument responses (peak areas/IS peak area) were referenced to the zero time-point samples (considered as 100%) in order to determine the percentage of compound remaining.
(§7) Testosterone (1 μM) and Propranolol and Caffeine (1 μM) were used as reference compounds, being unstable and stable compounds respectively. If the microsomal stability values for these controls are not in the range determined by the historical data, the assay is not validated. The solubility of the compound in the final test concentration in 50 mM buffer pH 7.4 is checked by microscope to indicate whether precipitation is observed or not. If a precipitate is observed, no data of microsomal stability is generated.
Background: Liver microsomes are vesicles of endoplasmic reticulum, rich in cytochrome P450 enzymes.

A further series deals with human AT1R (Homo sapiens (Human), UniProt P30556). As to the kind of experiment: Counterscreen radioligand binding assay, displacement of 125I-[Sar1, Ile8]-Angiotensin II, hAT1R WT. The note with it: for inhibition at 1 µM / inhibition at 10 µM: 125I-[Sar1, Ile8]-Ang II, semi-quantitative score; for inhibition at 1 µM: compound at 1 μM, read-out: % Displaced radioligand at 1 μM; for inhibition at 10 µM: compound at 10 μM, read-out: % Displaced radioligand at 10 μM; for IC50: HEK-293 cell membranes, read-out: Binding affinity On hAT1R IC50. In outline: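 Compounds displaced 0.05 nM 125I-[Sar1, Ile8]-Ang II from human AT1R in HEK-293 membranes (1 h, 25° C; Tris/MgCl2/EDTA/BSA buffer, pH 7.4). Readout was filtration and scintillation counting, with non-specific binding set by 10 μM [Sar1]-Ang II. Values are % displacement at 1 μM and […], or IC50 from eight-point four-parameter fits.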
Chain of human AT1R (P30556 whole entry): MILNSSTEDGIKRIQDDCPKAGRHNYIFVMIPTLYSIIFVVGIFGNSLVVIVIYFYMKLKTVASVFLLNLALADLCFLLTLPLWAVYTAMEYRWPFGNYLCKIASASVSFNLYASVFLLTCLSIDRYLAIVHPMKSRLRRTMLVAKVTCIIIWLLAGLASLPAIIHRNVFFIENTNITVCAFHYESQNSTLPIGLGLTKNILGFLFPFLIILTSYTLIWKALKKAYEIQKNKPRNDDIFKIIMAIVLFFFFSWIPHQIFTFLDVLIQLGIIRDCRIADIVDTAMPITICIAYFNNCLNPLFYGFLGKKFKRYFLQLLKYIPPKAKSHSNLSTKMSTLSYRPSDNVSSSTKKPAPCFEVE
A general note: A counterscreen serves to expose hits that act by an unwanted route or on another target.

Series [2] in a line: Liver microsomal stability, rat. It counts as in vitro ADME. The note with it: male, pH 7.4, liver microsomes. As for the experimental part: as §1, §2, §3, §4, §5, §6, §7

Usually IC50 stands for the point on the concentration scale where inhibition reaches its midpoint. One may read the microsomal CLint as the rate of metabolic loss divided by the concentration. As for `CC(C)Oc1ccc(-c2nn[nH]n2)c(N2CCN(Cc3nc4ccccc4s3)CC2)c1` [Compound A-51, 2-[[4-[5-isoprop-oxy-2-(2H-tetrazol-5-yl)phenyl]piper-azin-1-yl]methyl]-1,3-benzothiazole], the IC50 at human AT2R fused to Cb23 was determined as 2.11 µM; at human AT1R it was 55 µM. Besides, the microsomal CLint worked out at 4 µL/min/mg in series [1] and 1 µL/min/mg in series [2]. Further, the inhibition at 1 µM at human AT1R was less than 30%. The inhibition at 10 µM on human AT1R was less than 30%.

As for `CC(C)Cc1ccc(-c2nn[nH]n2)c(N2CCN(Cc3ncccn3)CC2)c1` [Compound A-88], the IC50 at human AT2R fused to Cb23 stood at 15.5 µM. The same molecule came in with a microsomal CLint in series [1] of 7 µL/min/mg. Also, on human AT1R, the inhibition at 1 µM was less than 30% and the inhibition at 10 µM was less than 30%. In series [2], the microsomal CLint was 7 µL/min/mg.

Take `CCC1CN(Cc2cccnn2)CCN1c1cc(CC(C)C)cc(F)c1-c1nn[nH]n1` (stereo not drawn) [Compound A-181, 3-[[3-ethyl-4-[3-fluoro-5-isobutyl-2-(2H-tetrazol-5-yl)phenyl]piperazin-1-yl]methyl]pyridazine]: the concentration for half-maximal inhibition (IC50) on human AT2R fused to Cb23 was 0.0148 µM. The values for the microsomal CLint in series [1] and in series [2] were 6 µL/min/mg and 5 µL/min/mg, respectively. Besides, the inhibition at 1 µM on human AT1R is less than 30%. Moreover, the inhibition at 10 µM at human AT1R is less than 30%.

For the molecule `CC(C)Cc1cc(F)c(-c2nn[nH]n2)c(N2CC(C)N(Cc3cccnn3)CC2C)c1` (stereo not drawn) [Compound A-183, 3-[[4-[3-fluoro-5-isobutyl-2-(2H-tetrazol-5-yl)phen-yl]-2,5-dimethyl-piperazin-1-yl]-methyl]pyridazine], the IC50 at human AT2R fused to Cb23 was 0.00833 µM. Moreover, the microsomal CLint in series [1] is 12 µL/min/mg; in series [2], 7 µL/min/mg. Also, at human AT1R, the inhibition at 1 µM was less than 30%. Further, the inhibition at 10 µM at human AT1R is less than 30%.

As to `CC(C)Oc1ccc(-c2nn[nH]n2)c(N2CCN(Cc3nc4ccccc4c(=O)[nH]3)CC2)c1` [Compound A-32], the IC50 at human AT2R fused to Cb23 came out at 14.7 µM. In series [1], this molecule yielded a microsomal CLint of 6 µL/min/mg. At human AT1R, the inhibition at 1 µM is less than 30% and the inhibition at 10 µM was less than 30%. This molecule yielded a microsomal CLint in series [2] of 13 µL/min/mg.

`CC(C)Oc1ccc(-c2nn[nH]n2)c(N2CCN(Cc3nc4ccccc4n3C)CC2)c1` [Compound A-24, 2-[[4-[5-isopropoxy-2-(2H-tetrazol-5-yl)phenyl]piperazin-1-yl]methyl]-1-methyl-benzimidazole]: the IC50 on human AT2R fused to Cb23 turned out to be 7.14 µM. In series [1], the microsomal CLint turned out to be 9 µL/min/mg. Besides, at human AT1R, the inhibition at 1 µM was less than 30% and the inhibition at 10 µM is less than 30%. In addition, the microsomal CLint in series [2] was 7 µL/min/mg.

Regarding `CCC1CN(c2cc(CC(C)C)cc(F)c2-c2nn[nH]n2)CCN1Cc1cccnn1` (stereo not drawn) [Compound A-178, 3-[[2-ethyl-4-[3-fluoro-5-isobutyl-2-(2H-tetrazol-5-yl)phenyl]piperazin-1-yl]methyl]pyridazine], on human AT2R fused to Cb23, the IC50 was found to be 0.0335 µM. In addition, the microsomal CLint in series [1] is 15 µL/min/mg; in series [2] it was 5 µL/min/mg. In addition, the inhibition at 1 µM at human AT1R is less than 30%. The inhibition at 10 µM at human AT1R was less than 30%.

As for `CC(C)Cc1ccc(-c2nn[nH]n2)c(N2CCN(Cc3nccn3C)CC2)c1` [Compound A-83, 1-[5-isobutyl-2-(2H-tetrazol-5-yl)-phenyl]-4-[(1-meth-ylimidazol-2-yl)-methyl]piperazine], the IC50 at human AT2R fused to Cb23 was determined as 1.78 µM. The microsomal CLint in series [1] worked out at 11 µL/min/mg. Also, on human AT1R, the inhibition at 1 µM was less than 30% and the inhibition at 10 µM was less than 30%. Moreover, the intrinsic metabolic clearance (microsomal CLint) in series [2] came to 3 µL/min/mg.

Consider `Cc1cnc(CN2CCN(c3cc(CC(C)C)cc(F)c3-c3nn[nH]n3)C[C@@H]2C)s1` [Compound A-223, 2-[[(2S)-4-[3-fluoro-5-isobutyl-2-(2H-tetrazol-5-yl)phenyl]-2-methyl-piperazin-1-yl]methyl]-5-methyl-thiazole], for which the IC50 on human AT2R fused to Cb23 was determined as 0.006 µM. Besides, at human AT1R, the inhibition at 1 µM was less than 30% and the inhibition at 10 µM is less than 30%. This molecule also had a microsomal CLint in series [2] of 24.1 µL/min/mg.

Take `CC(C)Cc1ccc(-c2nn[nH]n2)c(N2CCN(Cc3cccnn3)CC2)c1` [Compound A-90, 3-[[4-[5-isobutyl-2-(2H-tetrazol-5-yl)phenyl]piperazin-1-yl]methyl]pyridazine]: the IC50 on human AT2R fused to Cb23 is 2.03 µM. The molecule further yielded a microsomal CLint in series [1] of 10 µL/min/mg. Further, at human AT1R, the inhibition at 1 µM is less than 30% and the inhibition at 10 µM is less than 30%. This molecule also had a microsomal CLint in series [2] of 4 µL/min/mg.

For the molecule `CCCCNC(=O)NS(=O)(=O)c1ccc(C)cc1N1CCN(Cc2nc3ccccc3n2C)CC1` [Compound A-12, 1-butyl-3-[4-methyl-2-[4-[(1-methylbenzimidazol-2-yl)methyl]piperazin-1-yl]phenyl]sulfonyl-urea], the concentration for half-maximal inhibition (IC50) at human AT2R fused to Cb23 was 1.27 µM. Further, the microsomal CLint in series [1] was determined as 157 µL/min/mg; in series [2] it was 23 µL/min/mg. Moreover, at human AT1R, the inhibition at 1 µM is less than 30%. Moreover, at human AT1R, the inhibition at 10 µM was less than 30%.

With `CC(C)Cc1cc(F)c(-c2nn[nH]n2)c(N2CCN(Cc3ccccn3)[C@@H](C)C2)c1` [Compound A-217, (2S)-4-[3-fluoro-5-isobutyl-2-(2H-tetrazol-5-yl)phenyl]-2-methyl-1-(2-pyridylmethyl)piperazine], the IC50 on human AT2R fused to Cb23 came out at 0.00279 µM. In addition, at human AT1R, the inhibition at 1 µM was less than 30%, the inhibition at 10 µM is 30 to 50% and the IC50 stood at 17.5 µM. The molecule further displayed a microsomal CLint in series [2] of less than 17.3 µL/min/mg.

`CC(C)Cc1cc(F)c(-c2nn[nH]n2)c(N2CCN(Cc3cccnn3)[C@@H](C)C2)c1` [Compound A-174, 3-[[(2S)-4-[3-fluoro-5-isobutyl-2-(2H-tetrazol-5-yl)phenyl]-2-methyl-piperazin-1-yl]methyl]pyridazine]: the IC50 on human AT2R fused to Cb23 worked out at 0.00235 µM. The microsomal CLint in series [1] is 15.3 µL/min/mg; in series [2], less than 17.3 µL/min/mg. At human AT1R, the inhibition at 1 µM was less than 30%. On human AT1R, the inhibition at 10 µM was less than 30%.

Regarding `CCCCNC(=O)NS(=O)(=O)c1ccc(C(F)(F)F)cc1N1CCN(Cc2nc3ccccc3n2C)CC1` [Compound A-10, 1-butyl-3-[2-[4-[(1-methylbenzimidazol-2-yl)methyl]piperazin-1-yl]-4-(trifluoromethyl)phenyl]sulfonyl-urea], the microsomal CLint in series [1] came out at 69 µL/min/mg. Moreover, at human AT1R, the inhibition at 1 µM was less than 30% and the inhibition at 10 µM is less than 30%. For the same molecule, the microsomal CLint in series [2] stood at 28 µL/min/mg.

For the origin of these results see patent US20240368133A1, “Compounds for the Treatment of Pain, in Particular, Neuropathic Pain, and/or Other Diseases or Disorders that are Associated with AT2R and/or AT2R Mediated Signaling” (Confo Therapeutics N.V., priority 2021, published 2024).
